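Results reflect a 48-hour exposure of cells in 96-well plates to compound at five concentrations. The concentration for 50% growth inhibition is given as GI50. TGI: concentration producing complete growth inhibition.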
Columns and labels:
Experiment in all cases: NCI-60 cell line screen, 48 h
M14 melanoma = test system: M14 melanoma
HCT-116 colon = test system: HCT-116 colon
RXF 393 renal = test system: RXF 393 renal
MDA-MB-231 breast = test system: MDA-MB-231 breast
HCT-15 colon = test system: HCT-15 colon
PC-3 prostate = test system: PC-3 prostate
A549 NSCLC = test system: A549 NSCLC
OVCAR-5 ovarian = test system: OVCAR-5 ovarian
IGROV1 ovarian = test system: IGROV1 ovarian
MOLT-4 leukemia = test system: MOLT-4 leukemia

Row | SMILES | GI50 (M14 melanoma) | TGI (M14 melanoma) | GI50 (HCT-116 colon) | TGI (HCT-116 colon) | GI50 (RXF 393 renal) | TGI (RXF 393 renal) | GI50 (MDA-MB-231 breast) | TGI (MDA-MB-231 breast) | GI50 (HCT-15 colon) | TGI (HCT-15 colon) | GI50 (PC-3 prostate) | TGI (PC-3 prostate) | GI50 (A549 NSCLC) | TGI (A549 NSCLC) | GI50 (OVCAR-5 ovarian) | TGI (OVCAR-5 ovarian) | GI50 (IGROV1 ovarian) | TGI (IGROV1 ovarian) | GI50 (MOLT-4 leukemia) | TGI (MOLT-4 leukemia)
1 | O=S(=O)(NC1=NCCN1C(=S)SN1CCn2c1nsc2=S)c1ccc(Oc2ccccc2)cc1 | > 100 µM | > 100 µM | 51.2 µM | > 100 µM | 32.4 µM | 86.1 µM | 37.8 µM | > 100 µM | 72.1 µM | > 100 µM | 56 µM | > 100 µM | > 100 µM | > 100 µM | > 100 µM | > 100 µM | 31.8 µM | > 100 µM |  | 
2 | O=C1/C(=C\c2ccc(F)cc2)CN(C(=O)c2ccccc2F)C/C1=C\c1ccc(F)cc1 | 1.51 µM | 3.44 µM | 0.228 µM | 0.571 µM | 1.78 µM | 3.54 µM | 1.83 µM | 3.95 µM | 1.05 µM | 2.58 µM | 1.62 µM | 4.89 µM | 2.59 µM | 8.75 µM | 1.88 µM | 4.04 µM | 1.82 µM | 3.62 µM | 1.72 µM | 7.49 µM
3 | Cc1ccc(N)cc1[As]=[As]c1cc(N)ccc1C (stereo not given) | 1.71 µM | 3.4 µM | 1.64 µM | 3.15 µM | 1.19 µM | 2.47 µM | 1.35 µM | 2.82 µM | 0.75 µM | 2.24 µM | 1.71 µM | 3.38 µM | 4.36 µM | 20 µM | 2.07 µM | 3.73 µM | 1.88 µM | 4.18 µM | 1.94 µM | 8.82 µM
4 | Brc1ccccc2cc(-c3ccccc3)nc1-2 |  | 28.3 µM |  | 10.5 µM |  | 16.7 µM |  | > 42.3 µM |  | 17.1 µM |  | > 64.8 µM |  | 53 µM |  | 35 µM |  | 26.5 µM |  | > 92.3 µM
5 | CCN(CC)CCNC(=O)c1cccc2c1-c1ccccc1C2=O | > 100 µM | > 100 µM | 55.9 µM | > 100 µM | > 100 µM | > 100 µM | > 100 µM | > 100 µM | > 100 µM | > 100 µM | > 100 µM | > 100 µM | > 100 µM | > 100 µM | > 100 µM | > 100 µM | > 100 µM | > 100 µM |  | 
6 | CC(=O)[CH-]C(=O)c1ccccc1.CC(=O)[CH-]C(=O)c1ccccc1.Cl.[O-]c1ccnc2ccccc12.[O-]c1ccnc2ccccc12.[Ti+4] | > 100 µM | > 100 µM |  |  |  |  |  |  | > 100 µM | > 100 µM |  |  |  |  | > 100 µM | > 100 µM | > 100 µM | > 100 µM | > 100 µM | > 100 µM
7 | O=C(NC1CC1)c1c(O)[nH]c(=S)[nH]c1=O |  | > 100 µM |  | > 100 µM |  |  |  |  |  | > 100 µM |  |  |  | > 100 µM |  | > 100 µM |  | > 100 µM |  | > 100 µM
8 | Cc1ccccc1NC(=O)/C(=N\NC(N)=S)C(C#N)c1ccccc1 (stereo not given) |  | > 100 µM |  | > 100 µM |  | > 100 µM |  |  |  | > 100 µM |  |  |  | > 100 µM |  | > 100 µM |  | > 100 µM |  | > 100 µM
9 | Cc1cccc(C)c1NC(=O)CCC(=O)NC(N)=NC#N |  | > 100 µM |  | > 100 µM |  | > 100 µM |  |  |  | > 100 µM |  |  |  | > 100 µM |  | > 100 µM |  | > 100 µM |  | > 100 µM
10 | COc1cccc2c1C(=O)c1c(O)c3c(c(O)c1C2=O)C[C@@](O)(/C(CO)=N/NC(=O)CCCCCN1C(=O)C=CC1=O)C[C@@H]3O[C@H]1C[C@H](N)[C@H](O)[C@H](C)O1 | 1.06 µM | 11 µM | 0.41 µM | > 100 µM | 0.984 µM | 3.85 µM | 1.96 µM | 44 µM | 7.94 µM | > 100 µM | 1.64 µM | 19.5 µM |  |  | 4.04 µM | > 100 µM | 1.04 µM | > 100 µM | 0.392 µM | 28.3 µM
11 | Cc1ccc(S(=O)(=O)OCOS(=O)(=O)c2ccc(C)cc2)cc1 |  | > 100 µM |  | > 100 µM |  | > 100 µM |  |  |  | > 100 µM |  |  |  | > 100 µM |  | > 100 µM |  | > 100 µM |  | > 100 µM
12 | Cc1ccc2c(c1)-c1c3c(nn1C)-c1ccccc1SC3O2 (stereo not given) |  |  |  | > 100 µM |  | > 100 µM |  |  |  |  |  |  |  | > 100 µM |  | > 100 µM |  | > 100 µM |  | > 100 µM
13 | Cc1cccc(NC(=O)C(=O)C(C2OC(=O)c3ccccc32)[N+](=O)[O-])c1C (stereo not given) |  | 26.7 µM |  | 21.3 µM |  | 20.7 µM |  |  |  | 19.7 µM |  |  |  | 35.4 µM |  | 33.3 µM |  | 27.7 µM |  | > 100 µM
14 | CCC12C=CCN(CCc3c([nH]c4ccccc34)/C=C\1)C2 (stereo not given) |  | > 100 µM |  | > 100 µM |  |  |  |  |  | > 100 µM |  |  |  | > 100 µM |  |  |  | > 100 µM |  | > 100 µM
15 | COC(=O)[C@H](Cc1cn(C)cn1)NC(=O)[C@H](CC(=O)OCc1ccccc1)NC(=O)Nc1cc(C(F)(F)F)cc(C(F)(F)F)c1 | 3.38 µM | 11.3 µM | 12.5 µM | 40.7 µM |  |  | 10.9 µM | 23.3 µM | 17.9 µM | > 100 µM | 12.7 µM | 25.7 µM | 11.6 µM | 25.9 µM | 17.2 µM | 34.2 µM | 14.5 µM | 29.2 µM | 17.1 µM | 36.6 µM
16 | CN(C)c1ccc(/C=C(\C#N)c2cc3ccccc3[nH]2)cc1 | 0.551 µM | > 100 µM | 0.456 µM | > 100 µM |  |  | 1.63 µM | > 100 µM | 0.509 µM | > 100 µM | 1.15 µM | 31.6 µM | 1.55 µM | > 100 µM | 3.8 µM | > 100 µM | 1.6 µM | > 100 µM | 0.906 µM | > 100 µM
17 | COc1cc(OCc2ccccc2)c2c(CCC(=O)O)cc(=O)oc2c1 (tested in a mixture with another compound) |  | > 100 µM |  | > 100 µM |  |  |  | > 100 µM |  | > 100 µM |  | > 100 µM |  | > 100 µM |  | > 100 µM |  | > 100 µM |  | 90.4 µM

From PubChem BioAssay (NCI)
